Measured values as given in the NIST ThermoML archive (doi:10.1016/j.tca.2012.11.015).

Assay: molar heat capacity at constant pressure
Details: 101.33 kPa, Crystal, Small sample (50 mg) DSC

[F][Lu]([F])[F] [lutetium(III) fluoride]
Details	molar heat capacity at constant pressure [J/K/mol]
399.7 K	96.75
405.1 K	97.02
410.5 K	95.88
415.8 K	95.29
421.1 K	96.94
426.3 K	97.01
431.5 K	96.43
436.7 K	96.58
441.9 K	96.64
447.1 K	96.86
452.2 K	96.8
457.3 K	96.65
462.5 K	95.51
467.6 K	96.35
472.6 K	96.98
477.7 K	97.09
482.8 K	97.11
487.8 K	97.26
492.9 K	97.48
497.9 K	97.58
502.9 K	97.68
508 K	97.97
513 K	98.13
518 K	98.36
523 K	98.49
528 K	98.56
533.1 K	98.68
538.1 K	98.84
543.1 K	98.87
548.1 K	99.13
553.1 K	99.24
558.1 K	99.48
563.1 K	99.09
568.1 K	99.13
573.1 K	99.33
578.1 K	99.5
583.1 K	99.58
588 K	99.58
593 K	99.6
598 K	99.71
603 K	99.98
608 K	100.29
613 K	100.45
618 K	100.4
623 K	100.24
627.9 K	100.69
632.9 K	101.13
637.9 K	100.84
642.9 K	101.01
647.9 K	101.38
652.9 K	101.53
657.9 K	101.67
662.8 K	101.64
667.8 K	101.51
672.8 K	101.61
677.8 K	101.89
682.8 K	102.02
687.8 K	102.07
692.8 K	102.12
697.7 K	102.26
702.7 K	102.44
707.7 K	102.41
712.7 K	102.81
717.7 K	102.66
722.7 K	102.97
727.6 K	102.82
732.6 K	104.53
737.6 K	104.75
742.6 K	104.55
747.6 K	104.86
752.6 K	105.12
757.6 K	104.68
762.6 K	103.97
767.5 K	102.8
772.5 K	103.35
777.5 K	103.53
782.5 K	103
787.5 K	103.29
792.5 K	103.69
797.5 K	103.87
802.4 K	103.76
807.4 K	104.24
812.4 K	103.94
817.4 K	104.08
822.4 K	104.49
827.4 K	104.53
832.4 K	104.46
837.4 K	104.64
842.3 K	104.66
847.3 K	104.56
852.3 K	104.93
857.3 K	104.87
862.3 K	104.94
867.3 K	105.55
872.3 K	105.31
877.3 K	105.62
882.2 K	105.71
887.2 K	105.77
892.2 K	105.39
897.2 K	105.26
902.2 K	105.24
907.2 K	105.2
912.2 K	105.01
917.2 K	103.22
922.2 K	101.86
927.1 K	101.4
932.1 K	101.32
937.1 K	102.01
942.1 K	103.86
947.1 K	104.24
952.1 K	104.41
957.1 K	104.36
962.1 K	105.18
967.1 K	105.18
972.1 K	104.61
977 K	104.97
982 K	105.26
987 K	104.58
992 K	104.27
997 K	104.7
1002 K	104.37
1007 K	105.57
1012 K	107.7
1017 K	107.28
1022 K	106.62
1027 K	106.36
1031.9 K	106.14
1036.9 K	106.21
1041.9 K	106.18
1046.9 K	106.45
1051.9 K	105.23
1056.9 K	104.62
1061.9 K	103.86
1066.9 K	102.81
1071.9 K	104.66
1076.9 K	107.09
1081.9 K	107.68
1086.9 K	108.09
1091.9 K	108.21
1096.9 K	108.47
1101.9 K	108.65
1106.9 K	108.92
1111.9 K	108.53
1116.9 K	109.02
1121.9 K	108.84
1126.9 K	109.6
1131.9 K	109.55
1136.9 K	109.42
1141.8 K	108.84
1146.8 K	109.13
1151.8 K	109.39
1156.8 K	108.91
1161.8 K	108.91
1166.8 K	109.26
1171.8 K	109.47
1176.8 K	109.96
1181.8 K	108.7
1186.8 K	107.48
1191.8 K	106.02
1196.8 K	104.98
1201.8 K	104.23
1206.8 K	104.19
1211.8 K	107.96
